Patent US20110112124A1, “FUNGICIDAL COMPOSITIONS” (SYNGENTA CROP PROTECTION, INC., priority 2008, published 2011)
Read-outs that look alike come from different tables or passages of the source.

What was measured:
[1] = tested on: Mycosphaerella graminicola (Septoria tritici); experiment: Example B13: liquid culture test, Septoria blotch; type: cell-based
[2] = tested on: Tapesia yallundae W-type (Pseudocercosporella herpotrichoides); experiment: Example B14: liquid culture test, eyespot; type: cell-based
[3] = tested on: Thanatephorus cucumeris (Rhizoctonia solani); experiment: Example B15: liquid culture test, foot rot, damping-off; type: cell-based
[4] = tested on: Botryotinia fuckeliana (Botrytis cinerea); experiment: Example B16: liquid culture test, gray mould; type: cell-based
[5] = tested on: Mycosphaerella graminicola (Septoria tritici); experiment: Example B17: liquid culture test, Septoria blotch; type: cell-based
[6] = tested on: Botryotinia fuckeliana (Botrytis cinerea); experiment: Example B11: liquid culture test, gray mould; type: cell-based
Fusarium culmorum = type: cell-based
Plasmopara viticola = experiment: Example B18: grape leaf disc preventative test
Description: Leaf disks or leaf segments of various plant species were cut from plants grown in the greenhouse. The cut leaf disks or segments were placed in multiwell plates (24-well format) onto water agar. The leaf disks were sprayed with a test solution before (preventative) or after (curative) inoculation. Compounds to be tested were prepared as DMSO solutions (max. 10 mg/ml) which were diluted to the appropriate concentration with 0.025% Tween20 just before spraying. The inoculated leaf disks or segments were incubated under defined conditions (temperature, relative humidity, light, etc.) according to the respective test system. A single evaluation of disease level was carried out 3-9 days after inoculation, depending on the pathosystem. Percent disease control relative to the untreated check leaf disks or segments was then calculated.
The leaf disks were inoculated with a spore suspension of the fungus 1 day after application. The inoculated leaf disks were incubated at 19° C. and 80% rh under a light regime of 12 h light/12 h darkness in a climate cabinet and the activity of a compound was assessed as percent disease control compared to untreated when an appropriate level of disease damage appears in untreated check leaf disks (6-8 days after application).

[7] = tested on: Mycosphaerella graminicola (Septoria tritici); experiment: Example B9: liquid culture test, Septoria blotch; type: cell-based
[8] = tested on: Tapesia yallundae W-type (Pseudocercosporella herpotrichoides); experiment: Example B10: liquid culture test, eyespot; type: cell-based
Sclerotinia sclerotiorum [9] = experiment: Example B8: liquid culture test, cottony rot; type: cell-based
[10] = tested on: Tapesia yallundae W-type (Pseudocercosporella herpotrichoides); experiment: Example B7: liquid culture test, eyespot; type: cell-based
[11] = tested on: Mycosphaerella graminicola (Septoria tritici); experiment: Example B6: liquid culture test, Septoria blotch; type: cell-based
Sclerotinia sclerotiorum [12] = experiment: Example B3: liquid culture test, cottony rot; type: cell-based
[13] = tested on: Botryotinia fuckeliana (Botrytis cinerea); experiment: Example B1: liquid culture test, gray mould; type: cell-based
[14] = tested on: Mycosphaerella arachidis (Cercospora arachidicola); experiment: Example B4: liquid culture test, early leaf spot; type: cell-based
Pythium ultimum = experiment: Example B2: liquid culture test, seedling damping off; type: cell-based
[15] = tested on: Tapesia yallundae W-type (Pseudocercosporella herpotrichoides); experiment: Example B5: liquid culture test, eyespot; type: cell-based

## CCCC(Cn1cncn1)c1ccc(Cl)cc1Cl (stereo not drawn) [Penconazole, penconazole]
[1]; 0.078 ppm
  % action: 0%
[1]; 0.156 ppm
  % action: 0%
[1]; 0.313 ppm
  % action: 0%
[1]; 0.625 ppm
  % action: 20%

## CC(C)(C)C(O)(CCc1ccc(Cl)cc1)Cn1cncn1 (stereo not drawn) [Tebuconazol, tebuconazole, reference compound]
[2]; 0.625 ppm
  % action: 20%

## CC(C)C1C2CCC1c1c(NC(=O)c3cn(C)nc3C(F)F)cccc12 (stereo not drawn) [isopyrazam, reference compound]
[3]; 0.125 ppm
  % action: 50%
[3]; 0.250 ppm
  % action: 70%
[3]; 0.500 ppm
  % action: 70%
[3]; 1.000 ppm
  % action: 70%
[3]; 2.000 ppm
  % action: 70%
[4]; 0.031 ppm
  % action: 20%
[4]; 0.063 ppm
  % action: 20%
[5]; 0.031 ppm
  % action: 0%
[5]; 0.063 ppm
  % action: 20%
[5]; 0.125 ppm
  % action: 70%

## N#Cc1c[nH]cc1-c1cccc2c1OC(F)(F)O2 [Fludioxonil, fludioxonil, reference compound]
[6]; 0.063 ppm
  % action: 20%
[6]; 0.125 ppm
  % action: 70%
Fusarium culmorum; 0.250 ppm
  % action: 20%
Fusarium culmorum; 0.500 ppm
  % action: 70%

## C#CCOc1ccc(CCNC(=O)C(OCC#C)c2ccc(Cl)cc2)cc1OC (stereo not drawn) [Mandipropamid, mandipropamid, reference compound]
Plasmopara viticola; 0.625 ppm
  % action: 30%
Plasmopara viticola; 1.250 ppm
  % action: 37%
Plasmopara viticola; 2.500 ppm
  % action: 67%

## N#Cc1c(Cl)c(Cl)c(Cl)c(C#N)c1Cl [Chlorothalonil, chlorothalonil, reference compound]
[7]; 0.078 ppm
  % action: 20%
[7]; 0.156 ppm
  % action: 50%
[8]; 0.156 ppm
  % action: 20%
[8]; 0.313 ppm
  % action: 20%
Sclerotinia sclerotiorum [9]; 0.156 ppm
  % action: 0%
Sclerotinia sclerotiorum [9]; 0.313 ppm
  % action: 20%
Sclerotinia sclerotiorum [9]; 0.625 ppm
  % action: 90%

## Cc1cc(C2CC2)nc(Nc2ccccc2)n1 [Cyprodinil, cyprodinil]
[10]; 0.039 ppm
  % action: 0%
[10]; 0.078 ppm
  % action: 0%
[10]; 0.156 ppm
  % action: 0%
[10]; 0.313 ppm
  % action: 0%
[10]; 0.625 ppm
  % action: 0%
[10]; 1.250 ppm
  % action: 0%
[10]; 2.500 ppm
  % action: 0%
[10]; 5.000 ppm
  % action: 0%
[11]; 0.156 ppm
  % action: 0%
[11]; 0.313 ppm
  % action: 0%
[11]; 0.625 ppm
  % action: 0%
[11]; 1.250 ppm
  % action: 0%

## COC(c1ccc(Cl)cc1Cl)C(C)NC(=O)c1cn(C)nc1C(F)F (racemic) [Comp. 1.001, 3-difluoromethyl-1-methyl-1H-pyrazole-4-carboxylic acid [2-(2,4-dichlorophenyl)-2-methoxy-1-methyl-ethyl]-amide]
Sclerotinia sclerotiorum [12]; 0.313 ppm
  % action: 20%
Sclerotinia sclerotiorum [12]; 0.625 ppm
  % action: 50%
Sclerotinia sclerotiorum [12]; 1.250 ppm
  % action: 70%
[7]; 0.078 ppm
  % action: 20%
[7]; 0.156 ppm
  % action: 70%
[3]; 0.250 ppm
  % action: 0%
[3]; 0.500 ppm
  % action: 0%
[3]; 1.000 ppm
  % action: 0%
[3]; 2.000 ppm
  % action: 0%
[6]; 0.031 ppm
  % action: 0%
[6]; 0.063 ppm
  % action: 0%
[6]; 0.125 ppm
  % action: 20%
[6]; 0.250 ppm
  % action: 20%
[6]; 0.500 ppm
  % action: 50%
[4]; 0.016 ppm
  % action: 0%
[4]; 0.031 ppm
  % action: 0%
[4]; 0.063 ppm
  % action: 20%
[4]; 0.125 ppm
  % action: 20%
[13]; 0.063 ppm
  % action: 20%
[13]; 0.125 ppm
  % action: 20%
[13]; 0.250 ppm
  % action: 50%
[13]; 0.500 ppm
  % action: 50%
[13]; 1.000 ppm
  % action: 70%
[1]; 0.078 ppm
  % action: 20%
[1]; 0.156 ppm
  % action: 70%
[2]; 0.156 ppm
  % action: 20%
[2]; 0.313 ppm
  % action: 20%
[2]; 0.625 ppm
  % action: 50%
[2]; 1.250 ppm
  % action: 70%
[8]; 0.078 ppm
  % action: 0%
[8]; 0.156 ppm
  % action: 0%
[8]; 0.313 ppm
  % action: 20%
[8]; 0.625 ppm
  % action: 20%
[8]; 1.250 ppm
  % action: 50%
[14]; 0.039 ppm
  % action: 0%
[14]; 0.078 ppm
  % action: 20%
Fusarium culmorum; 0.063 ppm
  % action: 0%
Fusarium culmorum; 0.125 ppm
  % action: 0%
Fusarium culmorum; 0.250 ppm
  % action: 0%
Fusarium culmorum; 0.500 ppm
  % action: 0%
Fusarium culmorum; 1.000 ppm
  % action: 0%
Fusarium culmorum; 2.000 ppm
  % action: 20%
Plasmopara viticola; 0.625 ppm
  % action: 0%
Plasmopara viticola; 1.250 ppm
  % action: 0%
Plasmopara viticola; 2.500 ppm
  % action: 0%
Plasmopara viticola; 5.000 ppm
  % action: 7%
Plasmopara viticola; 10.000 ppm
  % action: 0%
Pythium ultimum; 2.500 ppm
  % action: 0%
Pythium ultimum; 5.000 ppm
  % action: 0%
Pythium ultimum; 10.000 ppm
  % action: 0%
Pythium ultimum; 20.000 ppm
  % action: 0%
[15]; 0.156 ppm
  % action: 0%
[15]; 0.313 ppm
  % action: 20%
[15]; 0.625 ppm
  % action: 50%
[15]; 1.250 ppm
  % action: 70%
[10]; 0.039 ppm
  % action: 0%
[10]; 0.078 ppm
  % action: 0%
[10]; 0.156 ppm
  % action: 20%
[10]; 0.313 ppm
  % action: 20%
[10]; 0.625 ppm
  % action: 50%
[10]; 1.250 ppm
  % action: 70%
Sclerotinia sclerotiorum [9]; 0.078 ppm
  % action: 0%
Sclerotinia sclerotiorum [9]; 0.156 ppm
  % action: 0%
Sclerotinia sclerotiorum [9]; 0.313 ppm
  % action: 20%
Sclerotinia sclerotiorum [9]; 0.625 ppm
  % action: 50%
Sclerotinia sclerotiorum [9]; 1.250 ppm
  % action: 70%
[11]; 0.156 ppm
  % action: 70%
[11]; 0.313 ppm
  % action: 90%
[5]; 0.016 ppm
  % action: 0%
[5]; 0.031 ppm
  % action: 0%
[5]; 0.063 ppm
  % action: 20%
[5]; 0.125 ppm
  % action: 50%

## CO/C=C(/C(=O)OC)c1ccccc1Oc1cc(Oc2ccccc2C#N)ncn1 [Azoxystrobin, azoxystrobin]
Sclerotinia sclerotiorum [12]; 0.625 ppm
  % action: 0%
Sclerotinia sclerotiorum [12]; 1.250 ppm
  % action: 20%
Sclerotinia sclerotiorum [12]; 2.500 ppm
  % action: 20%
Sclerotinia sclerotiorum [12]; 5.000 ppm
  % action: 50%
[13]; 0.063 ppm
  % action: 0%
[13]; 0.125 ppm
  % action: 20%
[13]; 0.250 ppm
  % action: 20%
[13]; 0.500 ppm
  % action: 50%
[13]; 1.000 ppm
  % action: 50%
[13]; 2.000 ppm
  % action: 50%
[14]; 0.039 ppm
  % action: 20%
[14]; 0.078 ppm
  % action: 50%
[14]; 0.156 ppm
  % action: 70%
Pythium ultimum; 10.000 ppm
  % action: 50%
Pythium ultimum; 20.000 ppm
  % action: 70%
[15]; 0.078 ppm
  % action: 0%
[15]; 0.156 ppm
  % action: 0%
[15]; 0.313 ppm
  % action: 20%
[15]; 0.625 ppm
  % action: 20%
[15]; 1.250 ppm
  % action: 20%
[15]; 2.500 ppm
  % action: 20%
[15]; 5.000 ppm
  % action: 20%
